Measured values: patent US4232148A, “6-Deoxyneamines” (The Upjohn Company, priority 1979, dated 1980)
In brackets after ≈: the same amount, converted by molar mass. Where two headings read alike, the source gives them in different places.

Legend:
Type in all cases: cell-based
B. cereus UC 3145 = assay: standard disc plate assay, zone of inhibition; settings: Bacillus cereus, UC3145, read-out: Zones of Inhibition, 1 mg/ml; 12.5 mm paper discs
Description: (§1) The compounds of formulas (V, VII, IX, XI, XIV, XVI, and XIX) are active as antibacterials and can be used in various environments to erradicate or control susceptible microorganisms. Tables I and II set forth the in vitro antibacterial test results for representative compounds of the present invention. The results were obtained with a standard disc plate assay using 12.5 mm paper discs.

S. lutea UC 130 = assay: standard disc plate assay, zone of inhibition; settings: Micrococcus luteus, UC130, read-out: Zones of Inhibition
Description: as §1

S. schottmeulleri UC 126 = assay: standard disc plate assay, zone of inhibition; settings: 12.5 mm paper discs, read-out: Zones of Inhibition; for zone of inhibition at 1000 µg/mL: 1 mg/ml
Description: as §1

E. coli UC 51 = assay: standard disc plate assay, zone of inhibition; settings: Escherichia coli, 12.5 mm paper discs
Description: as §1

D. pneumoniae UC 41 = assay: standard microplate test in BHI Agar, MIC; settings: Streptococcus pneumoniae, UC41, 37°, 20 hours, read-out: Minimal Inhibitory Concentration
Method: (§2) The compounds VII, XI, XVβ, XVα and XVI were tested in a standard microplate test in BHI (Brain Heart Infusion) Agar at a concentration of 1 mg./ml. and dilutions thereof at 37° incubation temperature. The end points are read at 20 hours. BHI Agar is supplied by Difco Laboratories, Detroit, Mich., U.S.A. and has the following compositions:
(§3) Calf brains, infusion from: 200 gm.
(§4) Beef heart, infusion from: 250 gm.
(§5) Bacto Proteose-peptone, Difco: 10 gm.
(§6) Bacto-Dextrose, Difco: 1 gm.
(§7) Disodium phosphate: 2.5 gm.

P. morganii UC 3186 = assay: standard microplate test in BHI Agar, MIC; settings: Morganella morganii, UC3186, 20 h
Method: as §2, §3, §4, §5, §6, §7

K. pneumoniae UC 58 = assay: standard microplate test in BHI Agar, MIC; settings: Klebsiella pneumoniae, UC58, 20 h
Method: as §2, §3, §4, §5, §6, §7

S. aureus UC 76 = assay: standard microplate test in BHI Agar, MIC; settings: Staphylococcus aureus, UC76, 20 h, read-out: Minimal Inhibitory Concentration
Method: as §2, §3, §4, §5, §6, §7

S. pyogenes UC 152 = assay: standard microplate test in BHI Agar, MIC; settings: Streptococcus pyogenes, UC152, 20 h
Method: as §2, §3, §4, §5, §6, §7

S. faecalis UC 694 = assay: standard microplate test in BHI Agar, MIC; settings: Enterococcus faecalis
Method: as §2, §3, §4, §5, §6, §7

S. schottmuelleri UC 126 = assay: standard microplate test in BHI Agar, MIC; settings: 37°, 20 hours
Method: as §2, §3, §4, §5, §6, §7

S. typhi UC 215 = assay: standard microplate test in BHI Agar, MIC; settings: Salmonella enterica, 20 h, read-out: Minimal Inhibitory Concentration
Method: as §2, §3, §4, §5, §6, §7

S. flexneri UC 143 = assay: standard microplate test in BHI Agar, MIC; settings: Shigella flexneri, UC143, 37°, 20 hours
Method: as §2, §3, §4, §5, §6, §7

E. coli UC 45 = assay: standard microplate test in BHI Agar, MIC; settings: Escherichia coli, UC45, 37°, 20 hours, read-out: Minimum Inhibitory Concentration
Method: as §2, §3, §4, §5, §6, §7

P. vulgaris UC 93 = assay: standard microplate test in BHI Agar, MIC; settings: Proteus vulgaris, UC93, 37°, 20 hours
Method: as §2, §3, §4, §5, §6, §7

P. mirabilis UC 6671 = assay: standard microplate test in BHI Agar, MIC; settings: Proteus mirabilis, UC6671, 37°, 20 hours
Method: as §2, §3, §4, §5, §6, §7

S. pneumoniae I UC 41 = assay: standard microplate test in BHI Agar, MIC; settings: Streptococcus pneumoniae, UC41, 37°, 20 hours, read-out: Minimum Inhibitory Concentration
Method: as §2, §3, §4, §5, §6, §7

S. marcescens UC 131 = assay: standard microplate test in BHI Agar, MIC; settings: Serratia marcescens, UC131, 37°, 20 hours
Method: as §2, §3, §4, §5, §6, §7

E. coli UC 311 = assay: standard microplate test in BHI Agar, MIC; settings: Escherichia coli, UC311, 20 h, read-out: Minimal Inhibitory Concentration
Method: as §2, §3, §4, §5, §6, §7

S. aureus UC 80 = assay: standard disc plate assay, zone of inhibition; settings: Staphylococcus aureus, UC80, read-out: Zones of Inhibition, 1 mg/ml; 12.5 mm paper discs
Description: as §1

[1] = read-out: Minimal Inhibitory Concentration
[2] = UC694, 20 h, read-out: Minimal Inhibitory Concentration
[3] = read-out: Minimum Inhibitory Concentration

Structure (SMILES) | zone of inhibition at 1000 µg/mL (S. schottmeulleri UC 126) [mm] | MIC (D. pneumoniae UC 41) [µg/mL] | MIC (S. aureus UC 76) [µg/mL] | MIC (S. faecalis UC 694; [2]) [µg/mL] | MIC (S. schottmuelleri UC 126; [1]) [µg/mL] | MIC (S. flexneri UC 143; [1]) [µg/mL] | MIC (E. coli UC 45) [µg/mL] | MIC (P. morganii UC 3186; [3]) [µg/mL] | MIC (P. vulgaris UC 93; [3]) [µg/mL] | MIC (P. mirabilis UC 6671; [3]) [µg/mL] | MIC (S. schottmuelleri UC 126; [3]) [µg/mL] | MIC (S. flexneri UC 143; [3]) [µg/mL] | MIC (S. pneumoniae I UC 41) [µg/mL] | further results
NC[C@H]1O[C@H](O[C@@H]2[C@@H](N)C[C@@H](N)C[C@H]2OC2O[C@H](CO)[C@@H](O)[C@H]2O)[C@H](N)[C@@H](O)[C@@H]1O (single isomer, unassigned) [Compound XVα, O-2,6-Diamino-2,6-dideoxy-α-D-glucopyranosyl (1→4)-O-[α-D-ribofuranosyl(1→5)]-2,6-dideoxy-D-streptamine] | 20 | 125 (≈ 285 µM) | 125 (≈ 285 µM) | > 500 | 125 (≈ 285 µM) | 500 (≈ 1140 µM) |  |  |  |  |  |  |  | zone of inhibition at 1000 µg/mL (B. cereus UC 3145): 20 mm; zone of inhibition at 1000 µg/mL (S. lutea UC 130): 16 mm; zone of inhibition at 1000 µg/mL (E. coli UC 51; UC51, read-out: Zones of Inhibition, 1 mg/ml): 24 mm; MIC (P. morganii UC 3186; [1]): 125 µg/mL (≈ 285 µM); MIC (K. pneumoniae UC 58; [1]): 15.6 µg/mL (≈ 35.6 µM); MIC (S. pyogenes UC 152; [1]): 31.2 µg/mL (≈ 71.2 µM); MIC (S. typhi UC 215): 62.5 µg/mL (≈ 143 µM)
NC[C@H]1O[C@H](O[C@H]2[C@H](O)C[C@H](N)C[C@@H]2N)[C@H](N)[C@@H](O)[C@@H]1O [6-deoxyneamine, 6-Deoxyneamine] |  |  |  |  |  |  | 31.2 (≈ 102 µM) | 62.5 (≈ 204 µM) | 31.2 (≈ 102 µM) | 62.5 (≈ 204 µM) | 31.2 (≈ 102 µM) | 62.5 (≈ 204 µM) | 62.5 (≈ 204 µM) | 
NC[C@H]1O[C@H](O[C@@H]2[C@@H](N)C[C@@H](N)C[C@H]2OC2O[C@H](CO)[C@@H](O)[C@H]2O)[C@H](N)[C@@H](O)[C@@H]1O (single isomer, unassigned) [Compound XVβ, O-2,6-Diamino-2,6-dideoxy-α-D-glucopyranosyl (1→4)-O-[β-D-ribofuranosyl(1→5)]-2,6-dideoxy-D-streptamine] | 24 | 15.6 (≈ 35.6 µM) | 31.2 (≈ 71.2 µM) |  | 7.8 (≈ 17.8 µM) | 31.2 (≈ 71.2 µM) |  |  |  |  |  |  |  | zone of inhibition at 100 µg/mL (S. schottmeulleri UC 126; 0.1 mg/ml): 16 mm; zone of inhibition at 100 µg/mL (E. coli UC 51; UC51, 0.1 mg/ml, read-out: Zones of Inhibition): 20 mm; MIC (P. vulgaris UC 93; [1]): 31.2 µg/mL (≈ 71.2 µM); MIC (S. faecalis UC 694; UC694, BHI Agar, 37°, 20 hours, read-out: Minimal Inhibitory Concentration): 500 µg/mL (≈ 1140 µM); MIC (S. marcescens UC 131; [1]): 62.5 µg/mL (≈ 143 µM); MIC (E. coli UC 311): 31.2 µg/mL (≈ 71.2 µM); MIC (P. mirabilis UC 6671; [1]): 125 µg/mL (≈ 285 µM)
NC[C@H]1O[C@H](O[C@@H]2[C@@H](N)C[C@@H](N)C[C@@H]2O)[C@H](N)[C@@H](O)[C@@H]1O [6-Deoxy-5-epineamine] | 21 |  |  |  |  |  |  |  |  |  |  |  |  | 
NC[C@H]1O[C@H](O[C@@H]2[C@@H](N)C[C@@H](N)C[C@H]2O[C@@H]2C[C@@H](N)[C@H](O)[C@@H](CO)O2)[C@H](N)[C@@H](O)[C@@H]1O [Compound XVI, O-2,6-Diamino-2,6-dideoxy-α-D-glucopyranosyl (1→4)-O-[3-amino-2,3-dideoxy-α-D-arabinohexopyranosyl(1→5)-2,6-dideoxy-D-streptamine]] | 15 |  |  | > 500 | > 500 | > 500 |  |  |  |  |  |  |  | zone of inhibition at 1000 µg/mL (S. aureus UC 80): 21 mm
C[C@@]1(O)C[C@H](N)C[C@H](N)[C@H]1O[C@H]1O[C@H](CN)[C@@H](O)[C@H](O)[C@H]1N [6-Deoxy-5-methylneamine, 6-Deoxy-5-methyl-neamine] | 21 |  |  |  |  |  | 125 (≈ 390 µM) | 125 (≈ 390 µM) | 62.5 (≈ 195 µM) | 250 (≈ 780 µM) | 62.5 (≈ 195 µM) | 125 (≈ 390 µM) | 62.5 (≈ 195 µM) | MIC (K. pneumoniae UC 58; [3]): 15.6 µg/mL (≈ 48.7 µM); MIC (S. pyogenes UC 152; [3]): 7.8 µg/mL (≈ 24.3 µM); MIC (S. faecalis UC 694; UC694, 20 h, read-out: Minimum Inhibitory Concentration): > 500 µg/mL; MIC (S. marcescens UC 131; [3]): 125 µg/mL (≈ 390 µM)
